According to patent publication US10195198B2, “Methods and compositions for treating diseases and conditions” (Afferent Pharmaceuticals Inc., priority 2014, dated 2019):
Entries after “also recorded” stand apart in the source; their conditions may differ.

Assays:
carotid sinus nerve [1] = assay: isolated carotid body/carotid sinus nerve preparation, P2X2 KO mouse (homotrimeric P2X3 mediated responses)
carotid sinus nerve [2] = assay: isolated carotid body/carotid sinus nerve preparation, P2X3 KO mouse (homotrimeric P2X2 mediated responses)
carotid sinus nerve [3] = assay: isolated carotid body/carotid sinus nerve preparation, wild-type mouse
Excerpt: FIGS. 1A-1D show the effects of Compound A, a benzyl-diaminopyrimidine P2X3 antagonist which is seen to reduce carotid sinus nerve activity and excitatory responses to hypoxia and ATP (or analogs), in an isolated preparation of carotid body/carotid sinus nerves. […] As shown, the dual P2X3 and P2X2/3 antagonist Compound A attenuates basal tonic firing and hypoxia-induced excitation of carotid sinus afferents in an isolated carotid body preparation of mouse. […] The IC50 is in the range between 10-30 μM.

IC50 (carotid sinus nerve [3]; Mus musculus, wild type preparations, reversible, read-out: IC50 for inhibition of the response of sinus nerve to hypoxia) [µM] | Compound | basal tonic firing and hypoxia, α,β-MeATP induced excitation of carotid sinus afferents (carotid sinus nerve [1]; P2X2 KO mouse isolated carotid body preparation) | potency compared with wild type (carotid sinus nerve [1]; P2X2 KO mouse, lower concentrations effective) | basal tonic firing and hypoxia or ATP-induced excitation of carotid sinus afferents (carotid sinus nerve [2]) | basal tonic firing and hypoxia-induced excitation of carotid sinus afferents (carotid sinus nerve [3]; wild-type mouse isolated carotid body preparation)
10 to 30 | COc1cc(Cc2cnc(N)nc2N)c(C(C)C)cc1OC [Compound A] | attenuates | Greater potency; also recorded: more sensitively observed | fails to attenuate; also recorded: no longer sensitive to inhibition | attenuates; also recorded: attenuation
– | Cc1nc(N=Nc2ccc(S(=O)(=O)O)cc2S(=O)(=O)O)c(COP(=O)(O)O)c(C=O)c1O [PPADS] | – | – | inhibitory activity | –
